Assay results reported in ChEMBL document CHEMBL1201862, “PubChem BioAssay data set” (2004).
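How tested: cells in 96-well plates exposed to compound for 48 hours at five concentrations. The concentration for 50% growth inhibition is given as GI50.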 Calls of active or inactive are those of the source. Rule as the data show it: active = GI50 up to about 1.1 µM and inactive = higher.

Key:
Assay in all cases: NCI tumour cell line growth inhibition, 48 h
SW-620 = tested on: SW-620
NCI-H23 = tested on: NCI-H23
UACC-62 = tested on: UACC-62
NCI-H226 = tested on: NCI-H226
T47D = tested on: T47D
Malme-3M = tested on: Malme-3M
MDA-N = tested on: MDA-N
SF-268 = tested on: SF-268
ACHN = tested on: ACHN
MCF7 = tested on: MCF7
KM12 = tested on: KM12
SR = tested on: SR
LOX IMVI = tested on: LOX IMVI
HOP-92 = tested on: HOP-92
SNB-19 = tested on: SNB-19
OVCAR-3 = tested on: OVCAR-3
TK-10 = tested on: TK-10
SK-MEL-5 = tested on: SK-MEL-5
NCI-H460 = tested on: NCI-H460
MDA-MB-231 = tested on: MDA-MB-231

SMILES	GI50 (SW-620)	GI50 (NCI-H23)	GI50 (UACC-62)	GI50 (NCI-H226)	GI50 (T47D)	GI50 (Malme-3M)	GI50 (MDA-N)	GI50 (SF-268)	GI50 (ACHN)	GI50 (MCF7)	GI50 (KM12)	GI50 (SR)	GI50 (LOX IMVI)	GI50 (HOP-92)	GI50 (SNB-19)	GI50 (OVCAR-3)	GI50 (TK-10)	GI50 (SK-MEL-5)	GI50 (NCI-H460)	GI50 (MDA-MB-231)
COc1c(C(CC(C)C)OC(C)=O)ccc2c1C(=O)OCc1cc(C)cc(O)c1O2 (configuration not stated)	17.5 µM (inactive)	10.3 µM (inactive)	12.7 µM (inactive)	14.9 µM (inactive)	11.3 µM (inactive)	16.1 µM (inactive)	15.1 µM (inactive)	14.3 µM (inactive)	10.5 µM (inactive)	11.8 µM (inactive)	19.3 µM (inactive)	> 100 µM (inactive)	12.6 µM (inactive)	11.9 µM (inactive)	14.8 µM (inactive)	10.5 µM (inactive)	17.7 µM (inactive)	11.1 µM (inactive)	12.6 µM (inactive)	
Oc1ccc(C[C@@H]2CN[C@H](Cc3ccc(O)c(Br)c3)CN2)cc1	> 100 µM (inactive)	> 100 µM (inactive)	> 100 µM (inactive)	> 100 µM (inactive)	> 100 µM (inactive)			> 100 µM (inactive)	> 100 µM (inactive)	> 100 µM (inactive)	> 100 µM (inactive)	> 100 µM (inactive)		> 100 µM (inactive)		> 100 µM (inactive)	> 100 µM (inactive)			> 100 µM (inactive)
C[C@H](CO)C1=CC(C#C[Si](C)(C)C)N(C(=O)Oc2ccccc2)c2ccccc21 (some centres not stated)	12.4 µM (inactive)	4.29 µM (inactive)	5.3 µM (inactive)	15.7 µM (inactive)	15.9 µM (inactive)		3.58 µM (inactive)	13.3 µM (inactive)	13.8 µM (inactive)		4.93 µM (inactive)	3.4 µM (inactive)	15.7 µM (inactive)	12.9 µM (inactive)	15.8 µM (inactive)	3.93 µM (inactive)	17 µM (inactive)	12.7 µM (inactive)	9.25 µM (inactive)	10.3 µM (inactive)
COC(=O)C1CC(C=O)=C(SC)N1 (configuration not stated)	> 50 µM (inactive)	> 50 µM (inactive)	> 50 µM (inactive)			> 50 µM (inactive)	> 50 µM (inactive)	> 50 µM (inactive)	> 50 µM (inactive)	> 50 µM (inactive)	> 50 µM (inactive)			> 50 µM (inactive)	> 50 µM (inactive)	> 50 µM (inactive)	> 50 µM (inactive)	> 50 µM (inactive)	> 50 µM (inactive)	> 50 µM (inactive)
CC(C)(C)/C(O)=C\c1nc2cc(C(F)(F)F)ccc2[nH]c1=O	> 100 µM (inactive)	> 100 µM (inactive)	> 100 µM (inactive)	> 100 µM (inactive)	> 100 µM (inactive)	> 100 µM (inactive)	> 100 µM (inactive)	> 100 µM (inactive)	> 100 µM (inactive)		> 100 µM (inactive)	> 10 µM (inactive)	> 100 µM (inactive)	> 100 µM (inactive)	> 100 µM (inactive)	> 100 µM (inactive)	> 100 µM (inactive)	> 100 µM (inactive)		> 100 µM (inactive)
CN1C(=O)C(C(N)=O)C2CC1(C)Oc1ccccc12 (configuration not stated)	> 100 µM (inactive)	> 100 µM (inactive)	> 100 µM (inactive)	> 100 µM (inactive)	> 100 µM (inactive)	> 100 µM (inactive)		> 100 µM (inactive)	> 100 µM (inactive)	> 100 µM (inactive)	> 100 µM (inactive)	> 100 µM (inactive)	> 100 µM (inactive)	> 100 µM (inactive)	> 100 µM (inactive)	> 100 µM (inactive)		> 100 µM (inactive)	> 100 µM (inactive)	> 100 µM (inactive)
CSc1nc(NC(C)C)c2c(n1)Sc1nc3ccccc3n1N=C2	13.1 µM (inactive)	11.7 µM (inactive)	6.62 µM (inactive)	0.57 µM (active)		9.18 µM (inactive)	27 µM (inactive)	25.7 µM (inactive)	5.83 µM (inactive)	20.3 µM (inactive)	16.5 µM (inactive)	13.2 µM (inactive)	10.7 µM (inactive)	11.1 µM (inactive)	7.57 µM (inactive)	10.4 µM (inactive)	13.8 µM (inactive)	0.69 µM (active)	6.34 µM (inactive)	11.1 µM (inactive)
S=C1SCN(Cc2ccco2)CN1c1ccc(Br)cc1	19.5 µM (inactive)	14.7 µM (inactive)	2.94 µM (inactive)	25.2 µM (inactive)	20.1 µM (inactive)	17.4 µM (inactive)	16.9 µM (inactive)	13.2 µM (inactive)	16 µM (inactive)	14.6 µM (inactive)	11.1 µM (inactive)	7.6 µM (inactive)	1.72 µM (inactive)	20 µM (inactive)	21.8 µM (inactive)	7.76 µM (inactive)	22.8 µM (inactive)	12.1 µM (inactive)	7.33 µM (inactive)	
CC(C)Oc1ccc(CNC2=NCCO2)c2ccccc12	15.3 µM (inactive)	14.6 µM (inactive)	15.3 µM (inactive)	15.7 µM (inactive)	11.9 µM (inactive)	14.1 µM (inactive)		22.3 µM (inactive)	14 µM (inactive)	14.1 µM (inactive)	18.1 µM (inactive)	7.85 µM (inactive)			7.74 µM (inactive)		16.3 µM (inactive)	12.9 µM (inactive)	12.4 µM (inactive)	14.5 µM (inactive)
O=C(N/C(=C/c1cccc([N+](=O)[O-])c1)c1nc2cc(Cl)ccc2[nH]1)c1ccccc1	5.55 µM (inactive)	11.4 µM (inactive)	5.4 µM (inactive)	24.4 µM (inactive)		12.8 µM (inactive)		11.7 µM (inactive)	11.3 µM (inactive)		5.41 µM (inactive)	3.61 µM (inactive)	4.53 µM (inactive)	19.1 µM (inactive)	36.3 µM (inactive)	19.6 µM (inactive)	3.67 µM (inactive)	2.82 µM (inactive)	10.4 µM (inactive)	
CCCCCCN(CCCCCC)C1=CC(=O)C(=O)c2ccccc21	14.2 µM (inactive)	11.5 µM (inactive)	16.5 µM (inactive)	17.3 µM (inactive)		21.3 µM (inactive)		18.7 µM (inactive)	17 µM (inactive)		17.6 µM (inactive)	15.8 µM (inactive)	8.49 µM (inactive)	14.5 µM (inactive)	16.1 µM (inactive)	3.55 µM (inactive)	21.7 µM (inactive)	17.2 µM (inactive)	17.3 µM (inactive)	
CC1=C(Cl)C[C@@H](/C(C)=C\Cl)O[C@@]1(O)C(Br)Br	37.3 µM (inactive)	41.9 µM (inactive)	45.2 µM (inactive)			24.5 µM (inactive)	19.2 µM (inactive)	32.7 µM (inactive)	30.5 µM (inactive)	18.2 µM (inactive)	54.1 µM (inactive)	19.5 µM (inactive)	31.7 µM (inactive)	25.2 µM (inactive)	> 100 µM (inactive)	17.5 µM (inactive)	29 µM (inactive)	24.9 µM (inactive)	41.1 µM (inactive)	19.5 µM (inactive)
Fc1ccc(F)c(/C=N/C23CC4CC(CC(C4)C2)C3)c1	> 10 µM (inactive)	> 10 µM (inactive)		> 10 µM (inactive)	> 10 µM (inactive)	> 10 µM (inactive)	> 10 µM (inactive)	> 10 µM (inactive)	> 10 µM (inactive)	> 10 µM (inactive)	> 10 µM (inactive)	> 10 µM (inactive)	> 10 µM (inactive)	> 10 µM (inactive)	> 10 µM (inactive)	> 10 µM (inactive)	> 10 µM (inactive)	> 10 µM (inactive)	> 10 µM (inactive)	
Nc1cccc(CCN2CCN(CCCc3ccccc3)CC2)c1	30.5 µM (inactive)	50.2 µM (inactive)	21.8 µM (inactive)	70 µM (inactive)	20.3 µM (inactive)	21 µM (inactive)		58.2 µM (inactive)	> 100 µM (inactive)	19.2 µM (inactive)	24.9 µM (inactive)	19.2 µM (inactive)	18.1 µM (inactive)	4.11 µM (inactive)	> 100 µM (inactive)	19.4 µM (inactive)	74.1 µM (inactive)	20.1 µM (inactive)	25.4 µM (inactive)	36.5 µM (inactive)
O=C(NCCCCNCCCNC(=O)OCc1ccccc1)OCc1ccccc1	61.7 µM (inactive)	> 100 µM (inactive)	17.9 µM (inactive)	32 µM (inactive)	18.9 µM (inactive)			69.5 µM (inactive)	43.4 µM (inactive)	24.5 µM (inactive)	32 µM (inactive)	23.9 µM (inactive)		22.7 µM (inactive)	37.8 µM (inactive)	> 100 µM (inactive)	43.7 µM (inactive)	16.9 µM (inactive)	23.6 µM (inactive)	
C=C1CC2CC[C@@]34C[C@@H]5O[C@@H]6C(O[C@H]7CC[C@H](CC(=O)OC8[C@@H](C)C9OC%10C[C@]%11(C[C@@H]%12O[C@@]%13(C[C@@H](C)[C@@H]%12O%11)C[C@H](C)[C@@H]%11OC%12CC(C(O)CO)OC%12C[C@@H]%11O%13)OC%10CC9O[C@H]8C[C@H]8O[C@@H](CC[C@@H]1O2)C[C@@H](C)C8=C)O[C@@H]7[C@@H]6O3)C5O4 (some centres not stated)	0.000485 µM (active)	0.00104 µM (active)	0.000494 µM (active)	0.00179 µM (active)		0.000904 µM (active)		0.00229 µM (active)	0.0038 µM (active)	0.000148 µM (active)	0.000494 µM (active)	0.000718 µM (active)	0.000469 µM (active)	0.00236 µM (active)	0.00211 µM (active)	0.000279 µM (active)	0.00863 µM (active)	0.000308 µM (active)	8.26e-05 µM (active)	
